# Measured values taken from PubChem BioAssay (NCI).
#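 48-hour exposure; five concentrations; linearly interpolated endpoints. TGI is the concentration that stops growth completely.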
# Key:
# Experiment in all cases: DTP human tumour cell line panel, 48 h
# A498 renal = test system: A498 renal
# SK-MEL-5 melanoma = test system: SK-MEL-5 melanoma
# HCC-2998 colon = test system: HCC-2998 colon
# OVCAR-5 ovarian = test system: OVCAR-5 ovarian
# MALME-3M melanoma = test system: MALME-3M melanoma
# MDA-MB-435 = test system: MDA-MB-435
# SNB-19 CNS = test system: SNB-19 CNS
# SF-268 CNS = test system: SF-268 CNS
# T-47D breast = test system: T-47D breast
# NCI-H522 lung = test system: NCI-H522 lung
# UO-31 renal = test system: UO-31 renal
# PC-3 prostate = test system: PC-3 prostate
# SN12C renal = test system: SN12C renal
# BT-549 breast = test system: BT-549 breast
# SNB-75 CNS = test system: SNB-75 CNS
# HCT-116 colon = test system: HCT-116 colon
# UACC-257 melanoma = test system: UACC-257 melanoma
# TK-10 renal = test system: TK-10 renal
# OVCAR-8 ovarian = test system: OVCAR-8 ovarian
# ACHN renal = test system: ACHN renal
# A549 NSCLC = test system: A549 NSCLC
# MDA-N = test system: MDA-N
# HL-60(TB) leukemia = test system: HL-60(TB) leukemia
# DU-145 prostate = test system: DU-145 prostate
# U251 CNS = test system: U251 CNS
# MDA-MB-231 breast = test system: MDA-MB-231 breast
# OVCAR-3 ovarian = test system: OVCAR-3 ovarian
# HS 578T breast = test system: HS 578T breast
# SK-OV-3 ovarian = test system: SK-OV-3 ovarian
# CAKI-1 renal = test system: CAKI-1 renal
# EKVX NSCLC = test system: EKVX NSCLC
# SF-295 CNS = test system: SF-295 CNS
# MCF7 breast = test system: MCF7 breast
# 786-0 renal = test system: 786-0 renal
# OVCAR-4 ovarian = test system: OVCAR-4 ovarian
# HOP-62 NSCLC = test system: HOP-62 NSCLC
# K-562 leukemia = test system: K-562 leukemia
# RXF 393 renal = test system: RXF 393 renal
# SK-MEL-2 melanoma = test system: SK-MEL-2 melanoma
# NCI-H460 lung = test system: NCI-H460 lung
# UACC-62 melanoma = test system: UACC-62 melanoma
# HT29 colon = test system: HT29 colon
# HCT-15 colon = test system: HCT-15 colon
# SK-MEL-28 melanoma = test system: SK-MEL-28 melanoma
# SW-620 colon = test system: SW-620 colon
# NCI-H226 lung = test system: NCI-H226 lung
# COLO 205 colon = test system: COLO 205 colon
# KM12 colon = test system: KM12 colon
# IGROV1 ovarian = test system: IGROV1 ovarian
# M14 melanoma = test system: M14 melanoma
# SF-539 CNS = test system: SF-539 CNS
# MOLT-4 leukemia = test system: MOLT-4 leukemia
# RPMI-8226 leukemia = test system: RPMI-8226 leukemia
# CCRF-CEM leukemia = test system: CCRF-CEM leukemia
# NCI/ADR-RES ovarian = test system: NCI/ADR-RES ovarian
# LOX IMVI melanoma = test system: LOX IMVI melanoma
# NCI-H23 lung = test system: NCI-H23 lung
# HOP-92 NSCLC = test system: HOP-92 NSCLC
structure (smiles),measurement,setting,value
COc1ccc2nc3cc(Cl)ccc3c(Nc3ccc(O)c(CN4CCN(C)CC4)c3)c2c1,TGI,A498 renal,8.68 µM
same,TGI,SK-MEL-5 melanoma,3.11 µM
same,TGI,HCC-2998 colon,2.42 µM
same,TGI,OVCAR-5 ovarian,5.34 µM
same,TGI,MALME-3M melanoma,3.21 µM
same,TGI,MDA-MB-435,3 µM
same,TGI,SNB-19 CNS,5.96 µM
same,TGI,SF-268 CNS,6.42 µM
same,TGI,T-47D breast,4.48 µM
same,TGI,NCI-H522 lung,3.33 µM
same,TGI,UO-31 renal,3.31 µM
same,TGI,PC-3 prostate,3.22 µM
same,TGI,SN12C renal,3.93 µM
same,TGI,BT-549 breast,38.6 µM
same,TGI,SNB-75 CNS,3.91 µM
same,TGI,HCT-116 colon,3.74 µM
same,TGI,UACC-257 melanoma,3.45 µM
same,TGI,TK-10 renal,3.79 µM
same,TGI,OVCAR-8 ovarian,3.56 µM
same,TGI,ACHN renal,3 µM
same,TGI,A549 NSCLC,3.47 µM
same,TGI,MDA-N,3.21 µM
same,TGI,HL-60(TB) leukemia,3.57 µM
same,TGI,DU-145 prostate,3.73 µM
same,TGI,U251 CNS,3.15 µM
same,TGI,MDA-MB-231 breast,2.99 µM
same,TGI,OVCAR-3 ovarian,3.76 µM
same,TGI,HS 578T breast,4.65 µM
same,TGI,SK-OV-3 ovarian,11.1 µM
same,TGI,CAKI-1 renal,3.98 µM
same,TGI,EKVX NSCLC,3.52 µM
same,TGI,SF-295 CNS,3.81 µM
same,TGI,MCF7 breast,3.12 µM
same,TGI,786-0 renal,3 µM
same,TGI,OVCAR-4 ovarian,3.19 µM
same,TGI,HOP-62 NSCLC,4.07 µM
same,TGI,K-562 leukemia,3.71 µM
same,TGI,RXF 393 renal,3.22 µM
same,TGI,SK-MEL-2 melanoma,3.29 µM
same,TGI,NCI-H460 lung,3.22 µM
same,TGI,UACC-62 melanoma,3.07 µM
same,TGI,HT29 colon,3.54 µM
same,TGI,HCT-15 colon,5.68 µM
same,TGI,SK-MEL-28 melanoma,3.62 µM
same,TGI,SW-620 colon,5.1 µM
same,TGI,NCI-H226 lung,38.9 µM
same,TGI,COLO 205 colon,3.04 µM
same,TGI,KM12 colon,3.85 µM
same,TGI,IGROV1 ovarian,3.3 µM
same,TGI,M14 melanoma,3.53 µM
same,TGI,SF-539 CNS,3.22 µM
same,TGI,MOLT-4 leukemia,4.94 µM
same,TGI,RPMI-8226 leukemia,4.85 µM
NNC(=O)c1n[nH]n(N)c1=S,TGI,A498 renal,> 100 µM
same,TGI,SK-MEL-5 melanoma,> 100 µM
same,TGI,HCC-2998 colon,> 100 µM
same,TGI,CCRF-CEM leukemia,> 100 µM
same,TGI,OVCAR-5 ovarian,> 100 µM
same,TGI,MALME-3M melanoma,> 100 µM
same,TGI,MDA-MB-435,> 100 µM
same,TGI,SF-268 CNS,> 100 µM
same,TGI,T-47D breast,> 100 µM
same,TGI,NCI-H522 lung,> 100 µM
same,TGI,UO-31 renal,> 100 µM
same,TGI,PC-3 prostate,> 100 µM
same,TGI,SN12C renal,> 100 µM
same,TGI,BT-549 breast,> 100 µM
same,TGI,SNB-75 CNS,> 100 µM
same,TGI,NCI/ADR-RES ovarian,> 100 µM
same,TGI,HCT-116 colon,> 100 µM
same,TGI,UACC-257 melanoma,> 100 µM
same,TGI,TK-10 renal,> 100 µM
same,TGI,OVCAR-8 ovarian,> 100 µM
same,TGI,ACHN renal,> 100 µM
same,TGI,A549 NSCLC,> 100 µM
same,TGI,LOX IMVI melanoma,> 100 µM
same,TGI,MDA-N,> 100 µM
same,TGI,DU-145 prostate,> 100 µM
same,TGI,U251 CNS,> 100 µM
same,TGI,MDA-MB-231 breast,> 100 µM
same,TGI,OVCAR-3 ovarian,> 100 µM
same,TGI,HS 578T breast,> 100 µM
same,TGI,SK-OV-3 ovarian,> 100 µM
same,TGI,CAKI-1 renal,> 100 µM
same,TGI,EKVX NSCLC,> 100 µM
same,TGI,SF-295 CNS,> 100 µM
same,TGI,NCI-H23 lung,> 100 µM
same,TGI,786-0 renal,> 100 µM
same,TGI,OVCAR-4 ovarian,> 100 µM
same,TGI,HOP-62 NSCLC,> 100 µM
same,TGI,K-562 leukemia,> 100 µM
same,TGI,RXF 393 renal,> 100 µM
same,TGI,SK-MEL-2 melanoma,> 100 µM
same,TGI,NCI-H460 lung,> 100 µM
same,TGI,UACC-62 melanoma,> 100 µM
same,TGI,HT29 colon,> 100 µM
same,TGI,HCT-15 colon,> 100 µM
same,TGI,SK-MEL-28 melanoma,> 100 µM
same,TGI,SW-620 colon,> 100 µM
same,TGI,NCI-H226 lung,> 100 µM
same,TGI,COLO 205 colon,> 100 µM
same,TGI,KM12 colon,> 100 µM
same,TGI,IGROV1 ovarian,> 100 µM
same,TGI,M14 melanoma,> 100 µM
same,TGI,SF-539 CNS,> 100 µM
same,TGI,MOLT-4 leukemia,> 100 µM
same,TGI,RPMI-8226 leukemia,> 100 µM
COc1ccc(N=NC(=O)NC(CC(C)C)C(=O)NC(Cc2ccccc2)C(=O)O)cc1 (stereo unspecified),TGI,A498 renal,> 100 µM
same,TGI,SK-MEL-5 melanoma,25.6 µM
same,TGI,HCC-2998 colon,> 100 µM
same,TGI,CCRF-CEM leukemia,> 100 µM
same,TGI,OVCAR-5 ovarian,> 100 µM
same,TGI,MALME-3M melanoma,> 100 µM
same,TGI,HOP-92 NSCLC,97.5 µM
same,TGI,MDA-MB-435,> 100 µM
same,TGI,SNB-19 CNS,> 100 µM
same,TGI,SF-268 CNS,> 100 µM
same,TGI,T-47D breast,> 100 µM
same,TGI,NCI-H522 lung,> 100 µM
same,TGI,UO-31 renal,> 100 µM
same,TGI,PC-3 prostate,> 100 µM
same,TGI,SN12C renal,> 100 µM
same,TGI,BT-549 breast,> 100 µM
same,TGI,SNB-75 CNS,> 100 µM
same,TGI,NCI/ADR-RES ovarian,> 100 µM
same,TGI,HCT-116 colon,> 100 µM
same,TGI,UACC-257 melanoma,45.2 µM
same,TGI,TK-10 renal,> 100 µM
same,TGI,OVCAR-8 ovarian,> 100 µM
same,TGI,ACHN renal,> 100 µM
same,TGI,A549 NSCLC,> 100 µM
same,TGI,LOX IMVI melanoma,46.9 µM
same,TGI,MDA-N,> 100 µM
same,TGI,HL-60(TB) leukemia,8.18 µM
same,TGI,DU-145 prostate,> 100 µM
same,TGI,U251 CNS,> 100 µM
same,TGI,OVCAR-3 ovarian,> 100 µM
same,TGI,HS 578T breast,> 100 µM
same,TGI,CAKI-1 renal,> 100 µM
same,TGI,EKVX NSCLC,> 100 µM
same,TGI,SF-295 CNS,> 100 µM
same,TGI,NCI-H23 lung,> 100 µM
same,TGI,MCF7 breast,> 100 µM
same,TGI,786-0 renal,> 100 µM
same,TGI,OVCAR-4 ovarian,> 100 µM
same,TGI,HOP-62 NSCLC,> 100 µM
same,TGI,RXF 393 renal,> 100 µM
same,TGI,NCI-H460 lung,> 100 µM
same,TGI,UACC-62 melanoma,> 100 µM
same,TGI,HT29 colon,> 100 µM
same,TGI,HCT-15 colon,> 100 µM
same,TGI,SK-MEL-28 melanoma,> 100 µM
same,TGI,SW-620 colon,> 100 µM
same,TGI,NCI-H226 lung,> 100 µM
same,TGI,COLO 205 colon,5.36 µM
same,TGI,KM12 colon,> 100 µM
same,TGI,IGROV1 ovarian,> 100 µM
same,TGI,M14 melanoma,> 100 µM
same,TGI,SF-539 CNS,3.22 µM
same,TGI,MOLT-4 leukemia,> 100 µM
same,TGI,RPMI-8226 leukemia,> 100 µM
